Test results from US20240189495A1, “METHODS OF PREPARING AN EXTRACORPOREAL CIRCUIT FOR ANTICOAGULATION” (Lawell Therapeutics, LLC, priority 2021, published 2024).

Experiments:
Type in all cases: physicochemical
[1] = Adsorption of nafamostat to circuit tubing, in vitro dialysis circuit without filter, HPLC; details: for Percent of Nafamostat Remaining as a Ratio of the Starting Concentration at Time 0: tubing only, no filter
Description: A dialysis apparatus was established as described in FIG. 5 without using a filter. An experiment was conducted to determine the adsorption characteristics to the tubing. The solution was circulated through the tubing at typical CRRT flow rates of 100-300 milliliters per minute (FIG. 5). The concentration of nafamostat was measured via HPLC at 0, 5, 10 and 20 minutes. Only one reservoir of nafamostat was used. Therefore, any change in concentration represents adsorption since the molecule cannot escape the system. […] Therefore, any change in concentration can be attributed to adsorption onto the filter membrane tested.

[2] = Filter membrane adsorption in in vitro dialysis circuit, HPLC; details: for Quantity (% nafamostat free base) remaining after the initiation of priming: 500 mL; for Quantity (mcg nafamostat free base) adsorbed over time (minutes), Avg.: average of 5, 10, 20 min; for Time in which the change in concentration is complete: regardless the solution concentration
Description: A dialysis apparatus was established as described in FIG. 5 using a PS, PES, PAES, or a PAN filter. A series of experiments was conducted using various filter membranes in an in vitro model to determine the filter membrane adsorption characteristics. A solution of nafamostat was circulated through the blood and dialysate sides of the filter at typical CRRT flow rates of 100-300 milliliters per minute. The concentration of nafamostat was measured via HPLC at 0, 5, 10 and 20 minutes. Only one reservoir of nafamostat was used. Therefore, any change in concentration represents adsorption since the molecule cannot escape the system. The following filters were used: Polyethersulfone (PES) from […], part number CAR-505; Polyarylethersulfone (PAES) from Baxter, part number HF1000; Polyacrylonitrile (PAN) from Baxter, part number M100; Polysulfone (PS) from Baxter, part number F50; no filter, tubing only from Baxter, part number M100. Baxter tubing was used for all filter tests.

[3] = Saturation of polyacrylonitrile filter by repeated replenishment of nafamostat solution (Example 8)
Description: To determine if a polyacrylonitrile filter can be saturated, and if so, what quantity of nafamostat would be required, an in vitro experiment was conducted wherein 632 milligrams of nafamostat were passed through the filter in the same manner as described in FIG. 5 for 20 minutes. Then the solution was replenished with an additional 632 milligrams (solution B-1), which was circulated for an additional 20 minutes, followed by replenishment with an additional 632 milligrams (solution B-2), which was circulated for an additional 20 minutes and finally replenished with an additional 379 milligrams. The total quantity of 2275 milligrams represents a three-day consumption of nafamostat at the maximum dose of 31.2 mg/h. As one can see from Table 4, nafamostat continues to adsorb to the polyacrylonitrile filter even after the entire quantity of 2275 milligrams has been delivered.

Percent of Nafamostat Remaining as a Ratio of the Starting Concentration at Time 0 ([1]; 0 min): 100%
Percent of Nafamostat Remaining as a Ratio of the Starting Concentration at Time 0 ([1]; 5 min): 100%
Percent of Nafamostat Remaining as a Ratio of the Starting Concentration at Time 0 ([1]; 10 min): 101%
Percent of Nafamostat Remaining as a Ratio of the Starting Concentration at Time 0 ([1]; 20 min): 100%
Adsorption onto the tubing ([1]; tubing used for all tests): does not adsorb substantially
Quantity (% nafamostat free base) remaining after the initiation of priming ([2]; Example 2, PS F50, 158 mcg/mL, 0 min): 100%
Quantity (% nafamostat free base) remaining after the initiation of priming ([2]; Example 2, PS F50, 158 mcg/mL, 5 min): 96.7%
Quantity (% nafamostat free base) remaining after the initiation of priming ([2]; Example 2, PS F50, 158 mcg/mL, 10 min): 96.8%
Quantity (% nafamostat free base) remaining after the initiation of priming ([2]; Example 2, PS F50, 158 mcg/mL, 20 min): 97.2%
Quantity (mcg nafamostat free base) adsorbed over time (minutes) ([2]; Example 2, PS F50, prime quantity 79,000 mcg, 5 min): 2,620 mcg
Quantity (mcg nafamostat free base) adsorbed over time (minutes) ([2]; Example 2, PS F50, prime quantity 79,000 mcg, 10 min): 2,559 mcg
Quantity (mcg nafamostat free base) adsorbed over time (minutes) ([2]; Example 2, PS F50, prime quantity 79,000 mcg, 20 min): 2,222 mcg
Quantity (mcg nafamostat free base) adsorbed over time (minutes), Avg. ([2]; Example 2, PS F50, prime quantity 79,000 mcg): 2,467 mcg
Quantity (% nafamostat free base) remaining after the initiation of priming ([2]; Example 3, PES CAR-505, 158 mcg/mL, 0 min): 100%
Quantity (% nafamostat free base) remaining after the initiation of priming ([2]; Example 3, PES CAR-505, 158 mcg/mL, 5 min): 95.6%
Quantity (% nafamostat free base) remaining after the initiation of priming ([2]; Example 3, PES CAR-505, 158 mcg/mL, 10 min): 95.6%
Quantity (% nafamostat free base) remaining after the initiation of priming ([2]; Example 3, PES CAR-505, 158 mcg/mL, 20 min): 95.6%
Quantity (mcg nafamostat free base) adsorbed over time (minutes) ([2]; Example 3, PES CAR-505, prime quantity 79,000 mcg, 5 min): 3,555 mcg
Quantity (mcg nafamostat free base) adsorbed over time (minutes) ([2]; Example 3, PES CAR-505, prime quantity 79,000 mcg, 10 min): 3,555 mcg
Quantity (mcg nafamostat free base) adsorbed over time (minutes) ([2]; Example 3, PES CAR-505, prime quantity 79,000 mcg, 20 min): 3,555 mcg
Quantity (mcg nafamostat free base) adsorbed over time (minutes), Avg. ([2]; Example 3, PES CAR-505, prime quantity 79,000 mcg): 3,555 mcg
Quantity (% nafamostat free base) remaining after the initiation of priming ([2]; Example 4, PAES HF1000, 158 mcg/mL, 0 min): 100%
Quantity (% nafamostat free base) remaining after the initiation of priming ([2]; Example 4, PAES HF1000, 158 mcg/mL, 5 min): 96.9%
Quantity (% nafamostat free base) remaining after the initiation of priming ([2]; Example 4, PAES HF1000, 158 mcg/mL, 10 min): 97.2%
Quantity (% nafamostat free base) remaining after the initiation of priming ([2]; Example 4, PAES HF1000, 158 mcg/mL, 20 min): 97.1%
Quantity (mcg nafamostat free base) adsorbed over time (minutes) ([2]; Example 4, PAES HF1000, prime quantity 79,000 mcg, 5 min): 2,446 mcg
Quantity (mcg nafamostat free base) adsorbed over time (minutes) ([2]; Example 4, PAES HF1000, prime quantity 79,000 mcg, 10 min): 2,184 mcg
Quantity (mcg nafamostat free base) adsorbed over time (minutes) ([2]; Example 4, PAES HF1000, prime quantity 79,000 mcg, 20 min): 2,261 mcg
Quantity (mcg nafamostat free base) adsorbed over time (minutes), Avg. ([2]; Example 4, PAES HF1000, prime quantity 79,000 mcg): 2,297 mcg
Quantity (% nafamostat free base) remaining after the initiation of priming ([2]; Example 5, PAN M100, 158 mcg/mL, 0 min): 98.7%
Quantity (% nafamostat free base) remaining after the initiation of priming ([2]; Example 5, PAN M100, 158 mcg/mL, 5 min): 20.5%
Quantity (% nafamostat free base) remaining after the initiation of priming ([2]; Example 5, PAN M100, 158 mcg/mL, 10 min): 4.3%
Quantity (% nafamostat free base) remaining after the initiation of priming ([2]; Example 5, PAN M100, 158 mcg/mL, 20 min): 0.3%
Quantity (mcg nafamostat free base) adsorbed over time (minutes) ([2]; Example 5, PAN M100, prime quantity 79,000 mcg, 5 min): 61,770 mcg
Quantity (mcg nafamostat free base) adsorbed over time (minutes) ([2]; Example 5, PAN M100, prime quantity 79,000 mcg, 10 min): 74,594 mcg
Quantity (mcg nafamostat free base) adsorbed over time (minutes) ([2]; Example 5, PAN M100, prime quantity 79,000 mcg, 20 min): 77,732 mcg
Quantity (mcg nafamostat free base) adsorbed over time (minutes), Avg. ([2]; Example 5, PAN M100, prime quantity 79,000 mcg): 71,365 mcg
Quantity (% nafamostat free base) remaining after the initiation of priming ([2]; Example 6, PAN M100, 316 mcg/mL, 0 min): 99.5%
Quantity (% nafamostat free base) remaining after the initiation of priming ([2]; Example 6, PAN M100, 316 mcg/mL, 5 min): 20.4%
Quantity (% nafamostat free base) remaining after the initiation of priming ([2]; Example 6, PAN M100, 316 mcg/mL, 10 min): 4.3%
Quantity (% nafamostat free base) remaining after the initiation of priming ([2]; Example 6, PAN M100, 316 mcg/mL, 20 min): 0.4%
Quantity (mcg nafamostat free base) adsorbed over time (minutes) ([2]; Example 6, PAN M100, prime quantity 158,000 mcg, 5 min): 124,946 mcg
Quantity (mcg nafamostat free base) adsorbed over time (minutes) ([2]; Example 6, PAN M100, prime quantity 158,000 mcg, 10 min): 150,288 mcg
Quantity (mcg nafamostat free base) adsorbed over time (minutes) ([2]; Example 6, PAN M100, prime quantity 158,000 mcg, 20 min): 156,502 mcg
Quantity (mcg nafamostat free base) adsorbed over time (minutes), Avg. ([2]; Example 6, PAN M100, prime quantity 158,000 mcg): 143,912 mcg
Quantity (% nafamostat free base) remaining after the initiation of priming ([2]; Example 7, PAN M100, 632 mcg/mL, 0 min): 99.1%
Quantity (% nafamostat free base) remaining after the initiation of priming ([2]; Example 7, PAN M100, 632 mcg/mL, 5 min): 17.4%
Quantity (% nafamostat free base) remaining after the initiation of priming ([2]; Example 7, PAN M100, 632 mcg/mL, 10 min): 2.7%
Quantity (% nafamostat free base) remaining after the initiation of priming ([2]; Example 7, PAN M100, 632 mcg/mL, 20 min): 0.04%
Quantity (mcg nafamostat free base) adsorbed over time (minutes) ([2]; Example 7, PAN M100, prime quantity 316,000 mcg, 5 min): 258,314 mcg
Quantity (mcg nafamostat free base) adsorbed over time (minutes) ([2]; Example 7, PAN M100, prime quantity 316,000 mcg, 10 min): 304,629 mcg
Quantity (mcg nafamostat free base) adsorbed over time (minutes) ([2]; Example 7, PAN M100, prime quantity 316,000 mcg, 20 min): 313,065 mcg
Quantity (mcg nafamostat free base) adsorbed over time (minutes), Avg. ([2]; Example 7, PAN M100, prime quantity 316,000 mcg): 292,003 mcg
Time in which the change in concentration is complete ([2]; non-PAN filter (PAES)): ≤ 5 min
Time in which the change in concentration is complete ([2]; non-PAN filter (PES)): ≤ 5 min
Time in which the change in concentration is complete ([2]; non-PAN filter (PS)): ≤ 5 min
Change in concentration in the PAN filters ([2]; within the first 5 minutes): 80%
Change in concentration in the PAN filters ([2]; within the first 10 minutes): 95%
Change in concentration in the PAN filters ([2]; within the first 15 minutes): 99%
Change in concentration in the PAN filters ([2]; within the first 20 minutes): 99.5%
Amount of Nafamostat Remaining as a Ratio of the Starting Concentration at Time 0 ([3]; Example 8, Solution A 632 mg, 0 min): 99.2%
Amount of Nafamostat Remaining as a Ratio of the Starting Concentration at Time 0 ([3]; Example 8, Solution A 632 mg, 5 min): 8.5%
Amount of Nafamostat Remaining as a Ratio of the Starting Concentration at Time 0 ([3]; Example 8, Solution A 632 mg, 10 min): 0.8%
Amount of Nafamostat Remaining as a Ratio of the Starting Concentration at Time 0 ([3]; Example 8, Solution A 632 mg, 20 min): 0.0%
Amount of Nafamostat Remaining as a Ratio of the Starting Concentration at Time 0 ([3]; Example 8, Solution B-1, added 632 mg, 0 min): 100.0%
Amount of Nafamostat Remaining as a Ratio of the Starting Concentration at Time 0 ([3]; Example 8, Solution B-1, added 632 mg, 5 min): 14.6%
Amount of Nafamostat Remaining as a Ratio of the Starting Concentration at Time 0 ([3]; Example 8, Solution B-1, added 632 mg, 10 min): 6.2%
Amount of Nafamostat Remaining as a Ratio of the Starting Concentration at Time 0 ([3]; Example 8, Solution B-1, added 632 mg, 20 min): 3.1%
Amount of Nafamostat Remaining as a Ratio of the Starting Concentration at Time 0 ([3]; Example 8, Solution B-2, added 632 mg, 0 min): 100.0%
Amount of Nafamostat Remaining as a Ratio of the Starting Concentration at Time 0 ([3]; Example 8, Solution B-2, added 632 mg, 5 min): 20.0%
Amount of Nafamostat Remaining as a Ratio of the Starting Concentration at Time 0 ([3]; Example 8, Solution B-2, added 632 mg, 10 min): 14.6%
Amount of Nafamostat Remaining as a Ratio of the Starting Concentration at Time 0 ([3]; Example 8, Solution B-2, added 632 mg, 20 min): 10.8%
Amount of Nafamostat Remaining as a Ratio of the Starting Concentration at Time 0 ([3]; Example 8, Solution B-3, added 379 mg, 0 min): 100.0%
Amount of Nafamostat Remaining as a Ratio of the Starting Concentration at Time 0 ([3]; Example 8, Solution B-3, added 379 mg, 5 min): 20.8%
Amount of Nafamostat Remaining as a Ratio of the Starting Concentration at Time 0 ([3]; Example 8, Solution B-3, added 379 mg, 10 min): 19.2%
Amount of Nafamostat Remaining as a Ratio of the Starting Concentration at Time 0 ([3]; Example 8, Solution B-3, added 379 mg, 20 min): 17.7%
Saturation of the PAN filter with nafamostat ([3]; total quantity of 2275 milligrams delivered): cannot be saturated
Structure (SMILES): N=C(N)c1ccc2cc(OC(=O)c3ccc(N=C(N)N)cc3)ccc2c1 [Nafamostat, nafamostat]
